Tests used:
Assay in all cases: KINOMEscan competition binding
Conditions in all cases: compound 2.0 µM
STK4 (human) = STK4 (human) (UniProt Q13043)
MAP4K5 (human) = MAP4K5 (human) (UniProt Q9Y4K4)
VRK2 (human) = VRK2 (human) (UniProt Q86Y07)
DDR1 (human) = DDR1 (human) (UniProt Q08345)
EPHA6 (human) = EPHA6 (human) (UniProt Q9UF33)
[1] = tested on: FLT3 (human), P36888 [N841I]
CDKL2 (human) = CDKL2 (human) (UniProt Q92772)
[2] = tested on: EGFR (human), P00533 [G719C]
CAMKK1 (human) = CAMKK1 (human) (UniProt Q8N5S9)
CAMKK1 (human), sequence (Q8N5S9 whole entry, looked up): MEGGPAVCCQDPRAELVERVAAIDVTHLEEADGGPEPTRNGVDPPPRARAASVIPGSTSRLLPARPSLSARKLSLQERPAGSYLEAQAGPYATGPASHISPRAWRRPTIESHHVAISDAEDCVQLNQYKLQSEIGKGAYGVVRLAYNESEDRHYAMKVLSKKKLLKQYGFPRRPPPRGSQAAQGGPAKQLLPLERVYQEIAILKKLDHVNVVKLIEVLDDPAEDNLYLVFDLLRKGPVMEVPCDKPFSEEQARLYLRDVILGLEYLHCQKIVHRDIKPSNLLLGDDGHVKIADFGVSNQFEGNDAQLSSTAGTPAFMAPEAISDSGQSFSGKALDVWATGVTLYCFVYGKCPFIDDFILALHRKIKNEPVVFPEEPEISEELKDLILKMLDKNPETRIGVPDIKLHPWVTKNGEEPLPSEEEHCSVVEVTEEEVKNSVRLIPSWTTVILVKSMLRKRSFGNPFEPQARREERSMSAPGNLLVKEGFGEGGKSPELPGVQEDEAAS

CDK18 (human) = CDK18 (human) (UniProt Q07002)
CSF1R (human) = CSF1R (human) (UniProt P07333)
EIF2AK2 (human) = EIF2AK2 (human) (UniProt P19525)
CIT (human) = CIT (human) (UniProt O14578)
[3] = tested on: MET (human), P08581 [M1250T]
MAP4K2 (human) = MAP4K2 (human) (UniProt Q12851)
NUAK2 (human) = NUAK2 (human) (UniProt Q9H093)
CDK7 (human) = CDK7 (human) (UniProt P50613)
PRPF4B (human) = PRPF4B (human) (UniProt Q13523)
[4] = tested on: LRRK2 (human), Q5S007 [G2019S]
LRRK2 (human), Q5S007 [G2019S], sequence (Q5S007 whole entry G2019S, looked up): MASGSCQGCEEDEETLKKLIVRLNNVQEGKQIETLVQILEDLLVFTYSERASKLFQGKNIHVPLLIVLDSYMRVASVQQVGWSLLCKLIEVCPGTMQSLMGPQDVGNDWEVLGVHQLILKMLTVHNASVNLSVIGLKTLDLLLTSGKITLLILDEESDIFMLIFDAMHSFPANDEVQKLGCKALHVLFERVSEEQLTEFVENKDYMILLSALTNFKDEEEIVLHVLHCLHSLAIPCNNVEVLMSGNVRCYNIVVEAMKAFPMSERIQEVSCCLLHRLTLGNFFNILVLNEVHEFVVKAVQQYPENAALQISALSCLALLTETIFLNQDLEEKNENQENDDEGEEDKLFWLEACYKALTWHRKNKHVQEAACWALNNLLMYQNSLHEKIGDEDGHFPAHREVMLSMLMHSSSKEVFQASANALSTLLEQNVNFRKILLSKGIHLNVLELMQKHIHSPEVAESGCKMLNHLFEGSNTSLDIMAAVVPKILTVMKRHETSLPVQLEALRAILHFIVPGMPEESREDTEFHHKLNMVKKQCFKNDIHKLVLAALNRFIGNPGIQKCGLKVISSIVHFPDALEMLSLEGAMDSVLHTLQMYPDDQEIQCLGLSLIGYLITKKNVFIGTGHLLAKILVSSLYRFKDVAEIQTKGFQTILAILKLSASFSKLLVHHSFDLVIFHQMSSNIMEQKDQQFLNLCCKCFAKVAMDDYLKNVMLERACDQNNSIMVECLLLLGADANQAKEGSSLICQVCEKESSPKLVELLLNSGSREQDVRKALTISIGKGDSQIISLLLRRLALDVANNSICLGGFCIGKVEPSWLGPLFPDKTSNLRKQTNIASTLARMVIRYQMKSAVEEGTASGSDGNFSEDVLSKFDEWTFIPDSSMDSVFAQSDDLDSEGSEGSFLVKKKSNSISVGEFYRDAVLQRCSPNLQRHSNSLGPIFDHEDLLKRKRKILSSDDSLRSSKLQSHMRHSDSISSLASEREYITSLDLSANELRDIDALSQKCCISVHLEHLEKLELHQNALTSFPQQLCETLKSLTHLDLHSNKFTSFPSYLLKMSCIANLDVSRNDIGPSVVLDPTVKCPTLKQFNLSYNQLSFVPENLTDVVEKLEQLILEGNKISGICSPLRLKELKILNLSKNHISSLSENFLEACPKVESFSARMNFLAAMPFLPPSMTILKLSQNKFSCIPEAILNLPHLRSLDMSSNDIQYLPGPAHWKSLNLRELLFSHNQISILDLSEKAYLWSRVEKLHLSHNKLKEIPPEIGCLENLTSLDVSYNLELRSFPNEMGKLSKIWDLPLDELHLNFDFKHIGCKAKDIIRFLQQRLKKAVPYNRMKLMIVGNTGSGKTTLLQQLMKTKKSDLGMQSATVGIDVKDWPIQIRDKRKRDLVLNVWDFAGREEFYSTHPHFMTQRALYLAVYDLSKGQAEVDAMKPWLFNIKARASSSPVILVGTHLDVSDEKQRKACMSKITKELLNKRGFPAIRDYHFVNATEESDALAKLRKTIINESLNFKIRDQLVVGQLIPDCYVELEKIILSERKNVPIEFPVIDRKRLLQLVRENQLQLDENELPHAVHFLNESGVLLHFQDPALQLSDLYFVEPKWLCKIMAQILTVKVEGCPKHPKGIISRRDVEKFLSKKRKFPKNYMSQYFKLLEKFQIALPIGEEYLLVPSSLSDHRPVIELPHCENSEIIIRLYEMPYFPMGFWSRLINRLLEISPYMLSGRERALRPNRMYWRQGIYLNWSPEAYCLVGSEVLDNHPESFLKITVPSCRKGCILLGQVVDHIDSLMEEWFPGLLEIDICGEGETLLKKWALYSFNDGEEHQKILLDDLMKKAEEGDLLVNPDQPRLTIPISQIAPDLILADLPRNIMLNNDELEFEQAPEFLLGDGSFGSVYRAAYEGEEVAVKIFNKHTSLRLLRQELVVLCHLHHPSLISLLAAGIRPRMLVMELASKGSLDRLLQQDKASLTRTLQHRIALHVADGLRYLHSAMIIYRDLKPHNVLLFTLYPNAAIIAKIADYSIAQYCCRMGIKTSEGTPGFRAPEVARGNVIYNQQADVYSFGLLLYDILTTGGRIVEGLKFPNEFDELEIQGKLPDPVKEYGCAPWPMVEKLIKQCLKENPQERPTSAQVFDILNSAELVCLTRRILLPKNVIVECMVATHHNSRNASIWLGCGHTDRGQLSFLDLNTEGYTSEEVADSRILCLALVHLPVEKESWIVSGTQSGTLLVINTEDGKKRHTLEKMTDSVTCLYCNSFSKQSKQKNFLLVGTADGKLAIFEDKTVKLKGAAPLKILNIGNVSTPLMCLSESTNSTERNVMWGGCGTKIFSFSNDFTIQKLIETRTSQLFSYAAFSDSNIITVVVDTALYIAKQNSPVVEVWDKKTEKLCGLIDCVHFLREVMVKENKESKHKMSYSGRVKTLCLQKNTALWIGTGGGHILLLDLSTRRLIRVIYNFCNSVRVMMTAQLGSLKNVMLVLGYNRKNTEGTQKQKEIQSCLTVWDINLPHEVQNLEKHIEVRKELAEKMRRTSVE

PRKG2 (human) = PRKG2 (human) (UniProt Q13237)
FGFR2 (human) = FGFR2 (human) (UniProt P21802)
NTRK2 (human) = NTRK2 (human) (UniProt Q16620)
HCK (human) = HCK (human) (UniProt P08631)
MET (human) = MET (human) (UniProt P08581)
MARK1 (human) = MARK1 (human) (UniProt Q9P0L2)
PIP5K1A (human) = PIP5K1A (human) (UniProt Q99755)
SRMS (human) = SRMS (human) (UniProt Q9H3Y6)
[5] = tested on: EGFR (human), P00533 [G719S]
CaMK1 (human) = CaMK1 (human) (UniProt Q14012)
CaMK1 (human), sequence (Q14012 whole entry, looked up): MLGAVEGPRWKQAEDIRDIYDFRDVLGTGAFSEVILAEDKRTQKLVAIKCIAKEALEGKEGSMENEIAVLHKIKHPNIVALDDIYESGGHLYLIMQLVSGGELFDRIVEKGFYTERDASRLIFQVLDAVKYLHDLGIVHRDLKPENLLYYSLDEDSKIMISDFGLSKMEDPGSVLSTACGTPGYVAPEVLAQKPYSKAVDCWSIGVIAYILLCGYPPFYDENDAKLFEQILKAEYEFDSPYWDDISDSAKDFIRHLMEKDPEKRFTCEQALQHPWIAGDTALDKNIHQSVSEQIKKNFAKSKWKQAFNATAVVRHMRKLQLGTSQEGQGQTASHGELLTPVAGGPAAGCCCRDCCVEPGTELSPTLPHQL

PAK3 (human) = PAK3 (human) (UniProt O75914)
CSNK2A2 (human) = CSNK2A2 (human) (UniProt P19784)
CDKL3 (human) = CDKL3 (human) (UniProt Q8IVW4)
TIE1 (human) = TIE1 (human) (UniProt P35590)
ERBB3 (human) = ERBB3 (human) (UniProt P21860)
BMPR2 (human) = BMPR2 (human) (UniProt Q13873)
[6] = tested on: FLT3 (human), P36888 [R834Q]
EPHA7 (human) = EPHA7 (human) (UniProt Q15375)
BRSK1 (human) = BRSK1 (human) (UniProt Q8TDC3)
TXK (human) = TXK (human) (UniProt P42681)
TXK (human), sequence (P42681 whole entry, looked up): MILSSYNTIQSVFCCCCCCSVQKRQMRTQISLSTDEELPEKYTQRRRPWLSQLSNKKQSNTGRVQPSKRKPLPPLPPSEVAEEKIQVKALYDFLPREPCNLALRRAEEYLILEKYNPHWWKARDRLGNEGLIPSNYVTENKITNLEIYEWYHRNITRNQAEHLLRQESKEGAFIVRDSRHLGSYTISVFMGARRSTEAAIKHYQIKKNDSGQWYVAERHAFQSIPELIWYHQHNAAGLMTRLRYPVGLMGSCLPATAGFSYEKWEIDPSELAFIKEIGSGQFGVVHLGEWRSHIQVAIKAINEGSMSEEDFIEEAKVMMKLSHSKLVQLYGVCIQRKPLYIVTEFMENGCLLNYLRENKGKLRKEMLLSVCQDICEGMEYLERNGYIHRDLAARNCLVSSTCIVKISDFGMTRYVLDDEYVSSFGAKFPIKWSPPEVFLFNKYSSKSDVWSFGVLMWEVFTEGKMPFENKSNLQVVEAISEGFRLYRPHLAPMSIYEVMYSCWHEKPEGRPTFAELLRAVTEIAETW

TNK1 (human) = TNK1 (human) (UniProt Q13470)
CAMK2A (human) = CAMK2A (human) (UniProt Q9UQM7)
AKT3 (human) = AKT3 (human) (UniProt Q9Y243)
LTK (human) = LTK (human) (UniProt P29376)

EPHA6 (human), sequence (Q9UF33 whole entry, looked up): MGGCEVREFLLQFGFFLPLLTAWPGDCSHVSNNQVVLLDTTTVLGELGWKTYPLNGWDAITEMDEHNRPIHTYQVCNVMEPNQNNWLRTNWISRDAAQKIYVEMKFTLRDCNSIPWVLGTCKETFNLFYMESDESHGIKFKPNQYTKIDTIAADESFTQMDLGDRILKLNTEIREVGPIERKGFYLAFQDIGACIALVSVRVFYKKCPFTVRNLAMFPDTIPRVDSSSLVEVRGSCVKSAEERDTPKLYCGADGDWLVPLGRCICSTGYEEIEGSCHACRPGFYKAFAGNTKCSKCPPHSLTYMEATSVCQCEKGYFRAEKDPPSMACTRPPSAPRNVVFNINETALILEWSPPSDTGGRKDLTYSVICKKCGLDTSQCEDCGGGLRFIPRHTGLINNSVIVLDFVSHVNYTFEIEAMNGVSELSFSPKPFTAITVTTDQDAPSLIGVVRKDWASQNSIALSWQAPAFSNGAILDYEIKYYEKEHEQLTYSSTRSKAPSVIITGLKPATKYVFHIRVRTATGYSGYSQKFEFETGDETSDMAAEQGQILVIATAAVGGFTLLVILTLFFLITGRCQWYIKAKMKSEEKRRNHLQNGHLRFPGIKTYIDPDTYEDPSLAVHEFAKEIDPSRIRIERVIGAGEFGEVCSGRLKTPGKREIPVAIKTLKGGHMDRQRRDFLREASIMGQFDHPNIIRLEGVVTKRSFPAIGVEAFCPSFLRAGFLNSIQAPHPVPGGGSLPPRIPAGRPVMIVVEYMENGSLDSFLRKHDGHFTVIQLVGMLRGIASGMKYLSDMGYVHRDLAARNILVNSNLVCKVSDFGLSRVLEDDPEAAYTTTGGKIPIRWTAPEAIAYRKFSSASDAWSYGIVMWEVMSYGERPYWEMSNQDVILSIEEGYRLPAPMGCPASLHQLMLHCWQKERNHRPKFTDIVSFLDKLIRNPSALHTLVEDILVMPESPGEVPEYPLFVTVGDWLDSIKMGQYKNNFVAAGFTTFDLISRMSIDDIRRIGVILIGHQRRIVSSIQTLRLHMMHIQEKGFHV

Q: For `N#Cc1ccc2ncnc(NCCc3ccc4ccccc4c3)c2c1`, which kinase still bound, per cent of control (STK4 (human)) is on record?
A: 100%

Q: And the kinase still bound, per cent of control (MAP4K5 (human))?
A: 95%

Q: What about the kinase still bound, per cent of control (VRK2 (human)) of the same compound?
A: 100%

Q: What about the kinase still bound, per cent of control (DDR1 (human)) of the same compound?
A: 96%

Q: And the kinase still bound, per cent of control (EPHA6 (human))?
A: 100%

Q: And the kinase still bound, per cent of control [1]?
A: 95%

Q: What about the kinase still bound, per cent of control (CDKL2 (human)) of the same compound?
A: 71%

Q: What about the kinase still bound, per cent of control [2] of the same compound?
A: 96%

Q: What about the kinase still bound, per cent of control (CAMKK1 (human)) of the same compound?
A: 97%

Q: What about the kinase still bound, per cent of control (CDK18 (human)) of the same compound?
A: 97%

Q: What about the kinase still bound, per cent of control (CSF1R (human)) of the same compound?
A: 77%

Q: And the kinase still bound, per cent of control (EIF2AK2 (human))?
A: 72%

Q: And the kinase still bound, per cent of control (CIT (human))?
A: 91%

Q: What about the kinase still bound, per cent of control [3] of the same compound?
A: 73%

Q: What about the kinase still bound, per cent of control (MAP4K2 (human)) of the same compound?
A: 60%

Q: What about the kinase still bound, per cent of control (NUAK2 (human)) of the same compound?
A: 77%

Q: And the kinase still bound, per cent of control (CDK7 (human))?
A: 80%

Q: And the kinase still bound, per cent of control (PRPF4B (human))?
A: 100%

Q: And the kinase still bound, per cent of control [4]?
A: 100%

Q: And the kinase still bound, per cent of control (PRKG2 (human))?
A: 100%

Q: What about the kinase still bound, per cent of control (FGFR2 (human)) of the same compound?
A: 90%

Q: What about the kinase still bound, per cent of control (NTRK2 (human)) of the same compound?
A: 98%

Q: What about the kinase still bound, per cent of control (HCK (human)) of the same compound?
A: 88%

Q: And the kinase still bound, per cent of control (MET (human))?
A: 100%

Q: And the kinase still bound, per cent of control (MARK1 (human))?
A: 83%

Q: What about the kinase still bound, per cent of control (PIP5K1A (human)) of the same compound?
A: 100%

Q: What about the kinase still bound, per cent of control (SRMS (human)) of the same compound?
A: 84%

Q: What about the kinase still bound, per cent of control [5] of the same compound?
A: 86%

Q: What about the kinase still bound, per cent of control (CaMK1 (human)) of the same compound?
A: 99%

Q: And the kinase still bound, per cent of control (PAK3 (human))?
A: 100%

Q: What about the kinase still bound, per cent of control (CSNK2A2 (human)) of the same compound?
A: 74%

Q: And the kinase still bound, per cent of control (CDKL3 (human))?
A: 100%

Q: What about the kinase still bound, per cent of control (TIE1 (human)) of the same compound?
A: 90%

Q: What about the kinase still bound, per cent of control (ERBB3 (human)) of the same compound?
A: 100%

Q: And the kinase still bound, per cent of control (BMPR2 (human))?
A: 100%

Q: And the kinase still bound, per cent of control [6]?
A: 100%

Q: What about the kinase still bound, per cent of control (EPHA7 (human)) of the same compound?
A: 93%

Q: What about the kinase still bound, per cent of control (BRSK1 (human)) of the same compound?
A: 100%

Q: And the kinase still bound, per cent of control (TXK (human))?
A: 94%

Q: And the kinase still bound, per cent of control (TNK1 (human))?
A: 90%

Q: What about the kinase still bound, per cent of control (CAMK2A (human)) of the same compound?
A: 99%

Q: And the kinase still bound, per cent of control (AKT3 (human))?
A: 98%

Q: And the kinase still bound, per cent of control (LTK (human))?
A: 99%
